Experimental data: patent US10874686B2, “Anthranilyl-adenosinemonosulfamate analogs and uses thereof” (Memorial Sloan-Kettering Cancer Center, priority 2015, dated 2020)

Experiments:
P. aeruginosa PqsA = P. aeruginosa PqsA (Pseudomonas aeruginosa, UniProt Q9I4X3); assay: PqsA inhibition, spectrophotometric assay with recombinant PqsA (anthranilyl-CoA formation at 365 nm); assay type: biochemical; conditions: for IC50: IC50 for inhibition of P. aeruginosa PqsA; for inhibition at 10 µM: read-out: % inhibition at 10 μM of P. aeruginosa PqsA, 10 μM; for PqsA inhibition, potency in words: short time scale of the assay
Method: PqsA inhibitors were evaluated using a quantitative spectrophotometric assay with recombinant PqsA, detecting formation of anthranilyl-CoA at 365 nm. See, e.g., Coleman et al. (2008) J. Bacteriol. 190, 1247. […] See, e.g., Morrison et al. Biochim. Biophys. Acta, Enzymol. 185, 269-286; Williams et al. (1979) Methods Enzymol. 63, 437. […] See, e.g., Qiao et al. (2007) J. Am. Chem. Soc. 129, 6350.
Reactions were performed at 37° C. in a 0.5 mL volume in a Varian Cary 100 UV-visible spectrophotometer with Cary WinUV software. Reaction mixtures contained 100 mM HEPES, pH 8.0, 0.2 mM dithiothreitol, 2 mM MgCl2, ˜3.3 μg PqsA protein (˜60 nM final), and depending on which substrate varied, 1 mM ATP (disodium salt), 0.5 mM coenzyme A (tri-lithium salt), 0.5 mM sodium anthranilate, and inhibitor (usually as a DMSO stock solution). Reactions were blanked and preincubated with all components except anthranilate at 37° C. for 1 min, then initiated by addition of anthranilate. Formation of anthraniloyl-CoA was monitored ance at 365 nm (ε=5.5 mM−1 cm−1) for 1 min. Data were analyzed using GraphPad Prism 6 software.

[1] = system: HHQ and PQS quinolone production in P. aeruginosa strain PA14; assay: Inhibition of HHQ and PQS quinolone production in P. aeruginosa strain PA14 (LC-MS/MS); assay type: cell-based, Pseudomonas aeruginosa; conditions: 1.5 mM, HHQ 8 h, PQS 20 h
Method: The production of PQS and HHQ by strain PA14 was performed in triplicate in 14-mL round bottom falcon tubes containing 3-mL cultures in LB medium. Tubes were incubated at 37° C. in an orbital shaker at 225 rpm. Cultures were inoculated with 15-hour culture in LB in order to obtain a starting OD600=0.05, with or without inhibitors added. For PQS and HHQ analysis, a 20 μl aliquot was taken at time points as indicated. Each sample was diluted with 180 μL of methanol containing the internal standard (100 μM of d^4-PQS or d^4-HHQ) and 2% acetic acid. The solution was then vertexed and centrifuged at 13,000 g for 5 minutes, and the supernatant was transferred to a 96-well plates for LC-MS/MS analysis. Bacterial growth was measured by recording OD600 at 20 h to provide the data in FIG. 7A.
Liquid chromatography tandem mass spectrometry (LC-MS/MS) was carried out on an Agilent Technologies 6410 triple quad LC-MS/MS system with autosampler in electrospray ionization (ESI) mode, with an Agilent Zorbax Eclipse XDB-C18 reverse phase column (50×4.6 mm, 5 μm) using a flow rate of 0.5 mL/minute and an isocratic mobile phase of 60% CH3CN in 0.1% aqueous formic acid over 5 minutes. Positive electrospray in MRM mode was employed to quantify PQS and HHQ, using the ion transitions HHQ 244 to 159, d^4-HHQ 248 to 163, PQS 260 to 175, and d^4-PQS 264 to 179; shown in Table E3.
PqsA inhibitors 1-5 were evaluated for their ability to inhibit HHQ and PQS quinolone production in P. aeruginosa strain PA14 (FIG. 6). HHQ and PQS concentrations were determined by LC-MS/MS quantitation relative to deuterated internal standards. 6-Fluoroanthranilate (6FABA), a substrate analogue reported previously to inhibit quinolone production at millimolar concentrations, was used as a positive control. Compounds were initially tested at 1.5 mM concentration, and HHQ and PQS were quantified at 8 and 20 hours, respectively. These time points were selected based on an initial time course study of quinolone production in the absence of inhibitors, with HHQ or PQS production peaking at these respective time points. […] This could be due to differences in cell penetration, stability, and/or target specificity. Finally, because inhibitors of the quinolone quorum sensing pathway should not impact bacterial growth, we confirmed that none of the six inhibitors above inhibited growth over 20 h (FIG. 7A). Encouraged by the ability of anthranilyl-AMS (1) and anthranilyl-AMSN (2) to inhibit HHQ and PQS quinolone production, the activity of these two inhibitors and 6FABA were investigated in greater detail. In untreated controls, HHQ and PQS production peaked at 8 and 20 hours, respectively. Previously reported time course studies have similarly shown that HHQ levels peak at 6-8 hours while PQS levels continue to rise. See, e.g., Deziel et al. (2004) Proc. Natl. Acad. Sci. U.S.A 101, 1339; Kesarwani et al. (2011) PLoS Pathog. 7, e1002192. All three inhibitors were able to decrease quinolone production in a dose- and time-dependent manner (FIG. 2A). […] Such a perturbation might still be sufficient to impact P. aeruginosa virulence in vivo. […] See, e.g., Lesic et al. (2007) PLoS Pathog. 3, e126.

PqsA = PqsA (Pseudomonas aeruginosa, UniProt Q9I4X3); conditions: previous biochemical studies; read-out: Km as PqsA substrate; cited from earlier work

SMILES	IC50 (P. aeruginosa PqsA) [nM]	inhibition at 10 µM (P. aeruginosa PqsA) [%]	other results
Nc1cccc(Cl)c1C(=O)NS(=O)(=O)OC[C@H]1O[C@@H](n2cnc3c(N)ncnc32)[C@H](O)[C@@H]1O [DST-Pqs16]	552	100	–
Nc1cccc(F)c1C(=O)NS(=O)(=O)OC[C@H]1O[C@@H](n2cnc3c(N)ncnc32)[C@H](O)[C@@H]1O [DST-Pqs12]	516	100	–
Nc1ccccc1C(=O)NS(=O)(=O)OC[C@H]1O[C@@H](n2cnc3c(N)ncnc32)C[C@@H]1O [JI-C-2014-008]	444	99.8 ± 0.2	–
CNc1ncnc2c1ncn2[C@@H]1O[C@H](COS(=O)(=O)NC(=O)c2ccccc2N)[C@@H](O)[C@H]1O [DST-Pqs19]	39200	32.1 ± 2.8	–
Nc1ccccc1C1(NS(=O)(=O)OC[C@H]2O[C@@H](n3cnc4c(N)ncnc43)[C@H](O)[C@@H]2O)COC1 [DST-Pqs33]	–	4.6 ± 2.9	–
Nc1ncnc2c1ncn2[C@@H]1O[C@H](CNS(=O)(=O)NC(=O)c2ccccc2O)[C@@H](O)[C@H]1O [salicyl-AMSN, Salicyl-AMSN, reference compound]	–	–	PqsA inhibition, potency in words (P. aeruginosa PqsA): potency similar to that of the cognate anthranilyl inhibitors; inhibition of quinolone production, in words [1]: less potent inhibitors of quinolone production
Nc1ccccc1C(=O)NS(=O)(=O)NC[C@H]1O[C@@H](n2cnc3c(N)ncnc32)[C@H](O)[C@@H]1O [DST-Pqs2]	213	100	–
Nc1cc2ccccc2cc1C(=O)NS(=O)(=O)OC[C@H]1O[C@@H](n2cnc3c(N)ncnc32)[C@H](O)[C@@H]1O [DST-Pqs9]	–	< 1	–
Nc1ncnc2c1ncn2[C@@H]1O[C@H](CNS(=O)(=O)/C=C/c2ccccc2O)[C@@H](O)[C@H]1O [compound 7, Salicyl-AVSN, reference compound]	–	–	PqsA inhibition, potency in words (P. aeruginosa PqsA): not as effective
NCc1ccc(Nc2nc(N)c3ncn([C@@H]4O[C@H](COS(=O)(=O)NC(=O)c5ccccc5N)[C@@H](O)[C@H]4O)c3n2)cc1 [DST-Pqs28]	–	–	% inhibition at 10 μM of P. aeruginosa PqsA (P. aeruginosa PqsA): 9.5 ± 3.9%
Nc1ncnc2c1ncn2[C@@H]1O[C@H](COS(=O)(=O)NC2(c3ccccc3)COC2)[C@@H](O)[C@H]1O [DST-Pqs32]	–	2.3 ± 0.9	–
Nc1ncnc2c1ncn2[C@@H]1O[C@H](COS(=O)(=O)NC2(c3ccccc3O)COC2)[C@@H](O)[C@H]1O [DST-Pqs31]	–	< 1	–
CN(C)c1ncnc2c1ncn2[C@@H]1O[C@H](COS(=O)(=O)NC(=O)c2ccccc2N)[C@@H](O)[C@H]1O [DST-Pqs18]	–	21.3 ± 1.9	–
Nc1cc(C(F)(F)F)ccc1C(=O)NS(=O)(=O)OC[C@H]1O[C@@H](n2cnc3c(N)ncnc32)[C@H](O)[C@@H]1O [DST-Pqs10]	–	1.1 ± 2.6	–
Nc1ccccc1C(=O)O [anthranilate]	–	–	Km (PqsA): 8 µM
Nc1cc(Cl)ccc1C(=O)NS(=O)(=O)OC[C@H]1O[C@@H](n2cnc3c(N)ncnc32)[C@H](O)[C@@H]1O [DST-Pqs14]	828	–	–
Nc1ccccc1/C=C/S(=O)(=O)NC[C@H]1O[C@@H](n2cnc3c(N)ncnc32)[C@H](O)[C@@H]1O [compound 6, Anthranilyl-AVSN]	–	–	PqsA inhibition, potency in words (P. aeruginosa PqsA): not as effective

SMILES	IC50 (P. aeruginosa PqsA) [nM]	inhibition at 10 µM (P. aeruginosa PqsA) [%]	other results
Nc1ncnc2c1ncn2[C@@H]1O[C@H](COS(=O)(=O)NC(=O)c2cccnc2Cl)[C@@H](O)[C@H]1O [DST-Pqs8]	–	10.3 ± 5.3	–
Nc1ncnc2c1ncn2[C@@H]1O[C@H](COS(=O)(=O)NC(=O)c2ccccc2)[C@@H](O)[C@H]1O [Benzoyl-AMS, reference compound]	–	–	PqsA inhibition, potency in words (P. aeruginosa PqsA): somewhat weaker inhibitor; inhibition of quinolone production, in words [1]: less potent inhibitors of quinolone production
Nc1c(Cl)cccc1C(=O)NS(=O)(=O)OC[C@H]1O[C@@H](n2cnc3c(N)ncnc32)[C@H](O)[C@@H]1O [DST-Pqs13]	1230	97.2 ± 1.2	–
Nc1ccccc1C(=O)NS(=O)(=O)OC[C@H]1O[C@@H](n2cnc3c(N)ncnc32)[C@H](O)[C@@H]1O [DST-Pqs1]	309	98.6 ± 2.3	–
Nc1ccccc1C(=O)NS(=O)(=O)OC[C@H]1O[C@@H](n2cnc3c(N)ncnc32)[C@H](N)[C@@H]1N [JI-C-2013-189]	7220	77.8 ± 0.2	–
Nc1ccccc1C(=O)NS(=O)(=O)OC[C@H]1O[C@@H](n2cnc3c(N)nc(C#Cc4ccccc4)nc32)[C@H](O)[C@@H]1O [JI-C-2013-456]	1460	95.9 ± 0.4	–
NCc1ccccc1Nc1nc(N)c2ncn([C@@H]3O[C@H](COS(=O)(=O)NC(=O)c4ccccc4N)[C@@H](O)[C@H]3O)c2n1 [DST-Pqs27]	5240	84.8 ± 1.5	–
Nc1ccccc1C(=O)NS(=O)(=O)OC[C@H]1O[C@@H](n2cnc3c(NC4CC4)ncnc32)[C@H](O)[C@@H]1O [DST-Pqs17]	–	1.3 ± 3	–
Nc1ncnc2c1ncn2[C@@H]1O[C@H](COS(=O)(=O)NC(=O)c2ccccc2O)[C@@H](O)[C@H]1O [salicyl-AMS, Salicyl-AMS, reference compound]	–	–	PqsA inhibition, potency in words (P. aeruginosa PqsA): potency similar to that of the cognate anthranilyl inhibitors; inhibition of quinolone production, in words [1]: less potent inhibitors of quinolone production
Nc1ccccc1C(=O)NS(=O)(=O)OC[C@H]1O[C@@H](n2cnc3c(N)nc(-c4ccccc4)nc32)[C@H](O)[C@@H]1O [JI-C-2013-454]	25000	42.7 ± 0.2	–
Nc1ccc(Cl)cc1C(=O)NS(=O)(=O)OC[C@H]1O[C@@H](n2cnc3c(N)ncnc32)[C@H](O)[C@@H]1O [DST-Pqs15]	1520	97.3 ± 0.9	–
O=C(O)c1ccccc1 [benzoate]	–	–	Km (PqsA): 150 µM
NCc1ccc(Nc2nc(N)c3ncn([C@@H]4O[C@H](COS(=O)(=O)NC(=O)c5ccccc5N)[C@@H](O)[C@H]4O)c3n2)cc1 [DST-Pqs29]	–	–	% inhibition at 10 μM of P. aeruginosa PqsA (P. aeruginosa PqsA): 76.0 ± 1.3%
Nc1ncnc2c1ncn2[C@@H]1O[C@H](COS(=O)(=O)NC2(c3ccccc3F)COC2)[C@@H](O)[C@H]1O [DST-Pqs30]	–	< 1	–
Nc1ccccc1C(=O)NS(=O)(=O)OC[C@H]1O[C@@H](n2cnc3c(N)nc(Nc4ccccc4)nc32)[C@H](O)[C@@H]1O [JI-C-2013-451]	2070	95.1 ± 0.2	–
Nc1ccccc1C(=O)NS(=O)(=O)OC[C@@H]1CC[C@H](n2cnc3c(N)ncnc32)O1 [JI-C-2014-025]	5000	91.2 ± 0.9	–
Nc1cc(F)ccc1C(=O)NS(=O)(=O)OC[C@H]1O[C@@H](n2cnc3c(N)ncnc32)[C@H](O)[C@@H]1O [DST-Pqs11]	107	100	–
